Test [1] relates to Kcnq2 mRNA in glutamatergic neurons of the vHipp. In words: qPCR mRNA levels in FACS-sorted glutamatergic neurons (Ai9+/tdTomato+) and remaining cells (Ai9-/tdTomato-) of Nex-Cre-Ai9 mice. In kind it is in vivo, mouse. The conditions noted are these: glutamatergic neurons (tdTomato+) of the vHipp, two days after treatment; ketamine 10, escitalopram 10, retigabine 1 mg/kg/BW. From the text:
Conditional transgenic mice expressing tdTomato in glutamatergic neurons of the forebrain (Nex-Cre;Ai9) were generated by crossing homozygous Nex-Cre mice [described in S. Goebbels et al., Genesis (2006) 44: 611-621] with homozygous Ai9 mice [Gt(ROSA)26Sortm9(CAG-tdTomato)Hze] [described in L. Madisen et al., Nat Neurosci (2010) 13: 133-140].
In order to further investigate these findings, a conditional reporter mouse line (Nex-Cre-Ai9) was generated where most glutamatergic neurons of the forebrain, including the hippocampus, are fluorescently labeled by tdTomato (Ai9) except for neurons in the dentate gyrus where Neurod6, the promoter used to target glutamatergic neurons driving Cre expression, is not expressed (FIG. 12) [J. Hartmann et al., Mol Psychiatry (2017) 22: 466-475]. Following the same paradigm used in the original cohort, mice were group-housed and injected with (R,S)-ketamine (10 mg/kg BW) or a saline vehicle control. The vHipp of these mice was dissected […] later (i.e. 2 days). Single-cell suspensions were prepared and individual cells were sorted using fluorescence activated cell sorting (FACS) (FIG. 2A) into two separate pools of cells from each mouse. One pool contained glutamatergic neurons (Ai9+) and a second contained all remaining cell types of the vHipp (Ai9-) (FIG. 2A and FIGS. 13A-C). […] These two separate pools of cells were then used to validate the scRNA-seq findings in glutamatergic neurons at the population level using quantitative real-time polymerase chain reaction (qPCR).
Next, it was tested whether retigabine can produce similar synergistic effects in combination with traditional antidepressants.
(In qPCR the cycle at which signal appears reflects the starting amount.)

The test system of test [2] is primary hippocampal neurons. The test is described as follows: qPCR mRNA expression in primary hippocampal neurons treated with ketamine or HNKet. Format: cell-based, mouse. The conditions noted are these: 10 μM. On the procedure:
(§1) Primary hippocampal neurons were generated from E16.5 embryos using a standard primary neuron cell culture protocol previously described [K. G. Schraut et al., Eur JNeurosci (2021) 53: 390-401]. Briefly, dissected hippocampi were harvested in ice-cold dissection medium (HBSS, 7 mM HEPES, 2 mM L-glutamine, 500 U/ml penicillin-streptomycin, all Thermo Fisher Scientific). The tissue was incubated for 10 minutes in 0.25% Trypsin-EDTA with 8 mM HEPES (Thermo Fisher Scientific) in a water bath at 37° C. Tissue was washed three times with serum medium (DMEM, 10% FBS, Thermo Fisher Scientific). The cells were dissociated by titration using glass Pasteur pipets 10 in serum medium and filtered with a 70 tm cell strainer (Corning). Cell culture plates were coated overnight with 0.05 mg/ml poly-D-lysine mol wt 70,000-150,000 (Sigma Aldrich) in 0.15 M borate buffer (pH=8.5). Cells were seeded in 24-well plates at a density of 5×10^4 cells in 1 ml growth medium (Neurobasal A medium, 1 x B27 supplement, 0.25×GlutaMAX, all Thermo Fisher Scientific) per well. All cultures were kept in a humidified incubator at 37° C. and 5% CO2. Growth medium was renewed after 7 days of culture. For all experiments, mature twenty-one-day old primary neuronal cultures were used.
Primary hippocampal neurons were generated from E16.5 embryos and cultured for 21 days, as described above (see Primary Cell Culture). For experiment 1 (FIGS. 3A-K), neurons were treated with a saline solution, (R,S)-ketamine (10 μM) (Ketaset, Zoetis, Germany) or (2R,6R)-HNKet (10 μM) (Sigma, Cat #SML1873-25MG) for 0, 2, 12, 24 or 48 hours and compared to untreated controls. For experiment 2 (FIGS. 6A-D), neurons were stimulated with either a saline solution, (2R,6R)-HNKet (10 μM), or a combination of (2R,6R)-HNKet (10 μM) plus nifedipine (10 μM) (Tocris Bioscience, Cat #1075), W-7 hydrochloride (10 μM) (Tocris, Cat #0369), or cyclosporine-A (1 μM) (Tocris, Cat #1101) for 30 minutes, 1, 2, or 6 hours, and compared to untreated controls.
Ketamine treatment regulates Kcnq2 in primary hippocampal neurons To corroborate the previous findings in glutamatergic neurons, it was next examined whether treatment of primary hippocampal neurons with either (R,S)-ketamine or its active metabolite, (2R,6R)-hydroxynorketamine (HNKet), could modify the mRNA expression of the 8 genes tested earlier in glutamatergic neurons. Mouse primary hippocampal neurons are mostly made up of glutamatergic neurons and therefore make a very good model system to further validate the previous in vivo findings. […]

Test [3] relates to Kcnq2 mRNA in primary hippocampal neurons. In words: Kcnq2 mRNA in primary hippocampal neurons stimulated with HNKet alone or plus nifedipine, W-7 or cyclosporine-A. In kind it is cell-based, mouse. On the procedure:
as §1
Primary hippocampal neurons were generated from E16.5 embryos and cultured for 21 days, as described above (see Primary Cell Culture). For experiment 1 (FIGS. 3A-K), neurons were treated with a saline solution, (R,S)-ketamine (10 μM) (Ketaset, Zoetis, Germany) or (2R,6R)-HNKet (10 μM) (Sigma, Cat #SML1873-25MG) for 0, 2, 12, 24 or 48 hours and compared to untreated controls. For experiment 2 (FIGS. 6A-D), neurons were stimulated with either a saline solution, (2R,6R)-HNKet (10 μM), or a combination of (2R,6R)-HNKet (10 μM) plus nifedipine (10 μM) (Tocris Bioscience, Cat #1075), W-7 hydrochloride (10 μM) (Tocris, Cat #0369), or cyclosporine-A (1 μM) (Tocris, Cat #1101) for 30 minutes, 1, 2, or 6 hours, and compared to untreated controls. […]

The subject of test [4] is KCNQ channel (KCNQ2/3, M-current). In words: In vitro whole-cell voltage-clamp recording of M-current (IM) density in primary hippocampal neurons. In kind it is cell-based, mouse. The following applies: HNKet 10 μM, 24 hours vs saline.
The next test concerns mice (C57BL/6N). In words: Forced swim test (FST), pharmacological manipulation of KCNQ. The following applies: XE991 1 and 3 mg/kg BW in combination with saline (FIG. 23A). Format: in vivo, mouse. On the procedure:
C57BL/6N and CD-1 (ICR) male mice aged 10 weeks old were used in these experiments. Ketamine hydrochloride (Ketaset, Zoetis, Germany) was diluted in 0.9% NaCl solution (saline) and administered i.p at 1, 5 or 10 mg/kg BW, depending on the experiment design. The KNCQ inhibitor, XE991 (Alomone labs; Cat #: X-100) was diluted in 5% DMSO and administered i.p at 1 or 3 mg/kg BW. The KCNQ activator, Retigabine (Alomone labs; Cat #: R-100), was diluted in 5% DMSO and administered i.p at 1 or 5 mg/kg BW. As control, mice were injected with a DMSO-saline solution (5% DMSO). For all experiments, mice were tested 30 minutes after injection in the FST or over a period of 36 hours after injection in the social boxes.
Previous studies in rodents have shown that KCNQ function can be regulated with highly-specific agonists and antagonists [V. Barrese et al., Annu Rev Pharmacol Toxicol (2018) 58: 625-648]. To further explore the KCNQ channel as a potential therapeutic target of ketamine, it was examined whether pharmacological inhibition of KCNQ alone or in combination with ketamine had any effects on behavior. To accomplish this, a new cohort of mice received two injections with a combination of drugs. […] To assess the effects of ketamine, XE991 (KCNQ inhibitor), and its combination, these mice were exposed to a FST (FIG. 7A, left). […] The inventors then sought to test whether the effects of ketamine could be mimicked, increased or amplified using retigabine, also known as ezogabine, a selective KCNQ (Kcnq2/3) channel activator. Similarly to the previous experiment, mice were treated with saline, (R,S)-ketamine (10 mg/kg BW), or ketamine in combination with two different concentrations of retigabine (1 and 5 mg/kg BW) (FIG. 7A, right).
Next, it was examined whether retigabine could increase the sustained antidepressant-like effects produced by a single injection of ketamine in mice. Accordingly, a new cohort of mice were treated with a single dose of saline, ketamine, or ketamine in combination with retigabine (1 mg/kg) and antidepressant-like behaviors were assessed using the FST, 5—and 7-days post-injection (FIG. 8A). […] Next, as a potential therapeutic strategy for major depressive disorder (MDD), the synergistic effects of ketamine and retigabine was further investigated by testing whether or not retigabine can increase the antidepressant-like effects produced by ketamine in mice. […] Next, it was tested whether retigabine can produce similar synergistic effects in combination with traditional antidepressants. […] Lastly, using a new cohort of Nex-Cre-Ai9 mice, it was tested whether the adjunctive treatment of ketamine with retigabine, or escitalopram alone, could modify the expression of Kcnq2 mRNA in FACS sorted cells from the vHipp (FIG. 8F).

`CN(C)CCC[C@@]1(c2ccc(F)cc2)OCc2cc(C#N)ccc21` [escitalopram]: the “Kcnq2 mRNA” value in test [1] is on record as “No significant changes”.

As to `N[C@@]1(c2ccccc2Cl)CCC[C@@H](O)C1=O` [HNKet, (2R,6R)-hydroxynorketamine], in test [2] (2, 12, 24 or 48 hours), the “mRNA expression of Hspa8, Snap25, Hsp90ab1, Ndufa4, Ilf2, E2f1 and Kcnq2” value was “significant changes”. In test [2] (2, 12, 24 or 48 hours vs untreated and saline controls), the “Kcnq2 mRNA expression” value is on record as “significant upregulation at all time points tested”. The “Kcnq2 mRNA” value in test [3] (1, 2 and 6 hours of stimulation, HNKet 10 μM) is on record as “significant upregulation of Kcnq2 mRNA”. The “expression of Kcnq2” value in test [3] (30 minutes of treatment, HNKet 10 μM) is recorded as “No significant differences”. The IM current density entry in test [4] is recorded as “significant increase in IM current density”.

`O=C1c2ccccc2C(Cc2ccncc2)(Cc2ccncc2)c2ccccc21` [XE991, 10,10-bis(4-pirinydilmethyl)-9(10H)−antracenone]: the “immobility time during the FST” value in the test with mice (C57BL/6N) is “No significant differences”.

Turning to `Cl.NCCCCCCNS(=O)(=O)c1cccc2c(Cl)cccc12` [W-7, W-7 hydrochloride], the “effect of inhibitor on the HNKet-induced upregulation of Kcnq2 mRNA” value in test [3] (combined with HNKet 10 μM, nifedipine 10 μM, W-7 10 μM, cyclosporine-A 1 μM, 1, 2, 6 hours) was “eliminated the upregulation of Kcnq2”.

Values taken from patent publication US20240065988A1, “COMBINED USE OF KETAMINE AND RETIGABINE (EZOGABINE) FOR THE TREATMENT OF PSYCHIATRIC DISORDERS” (Yeda Research and Development Co. Ltd., priority 2021, published 2024).
